Series [1] deals with Severe acute respiratory syndrome coronavirus 2. As to the kind of experiment: Inhibition of SARS-CoV-2 main protease using K(Dabcy1)-TSAVLQSGFRKM-E-Edans-NH2 as substrate at <=750 uM preincubated with enzyme for 30 mins followed by substrate addition by FRET assay. The following applies: dose microM <=750, time 30.0 min.
The nature of series [2]: Inhibition of SARS-CoV-2 main protease using K(Dabcy1)-TSAVLQSGFRKM-E-Edans-NH2 as substrate preincubated with enzyme for 30 mins followed by substrate addition by FRET assay. Also noted: species or system Severe acute respiratory syndrome coronavirus 2.
Series [3] is described as follows: Stability of the compound assessed as SARS-CoV-2 main protease-mediated compound cleavage at 187.5 uM measured after 4 hrs by LC/MS analysis. Format: ADME. Particulars: severe acute respiratory syndrome coronavirus 2, 4 h.
Another series concerns HEK293. As to the kind of experiment: Cytotoxicity against human HEK293 assessed as reduction in cell viability upto 256 uM after 72 hrs by LDH assay. Format: cell-based. The following applies: hek293, 72 h.

Data on three molecules can be found in ChEMBL document CHEMBL4842328, “A cyclic peptide inhibitor of the SARS-CoV-2 main protease” (Eur J Med Chem, 2021).

The structures appear in SMILES notation. The source made the active and inactive calls. The rule behind the calls is not given here. Numbered stars: 1 amine (or outer) side, 2 acyl side, 3 side chain; on linkers, the order of the positions; unused ones are H or OH. Square brackets hold non-standard residues; d marks the D form. Peptide text beside a SMILES is read from it. * marks the point of attachment. X2 = O=C(Cc1ccc(CCN[*:1])cc1)[*:2]; X1 = NC(=O)Cc1ccc(CCN*)cc1 Bounds are passed on as bounds.

Broadly, the IC50 is the concentration at which inhibition is half-maximal. A high value points to lower potency. As to `CC(=O)N[C@@H](Cc1ccccc1)C(=O)N[C@@H](CCC(N)=O)C(=O)N[C@@H](CO)C(=O)N[C@@H](CCCCN)C(=O)NCCc1ccc(CC(N)=O)cc1` (Ac-FQSK-X1), in series [1], the inhibition result is “inactive”. Moreover, in series [2], the IC50 was greater than 1500 µM.

Turning to `NCCCC[C@@H]1NC(=O)[C@H](CO)NC(=O)[C@H](CCC(N)=O)NC(=O)[C@H](Cc2ccccc2)NC(=O)Cc2ccc(cc2)CCNC1=O.O=C(O)C(F)(F)F` (cyclo(FQSK[X2])), the Stabilty entry in series [3] is recorded as “Stable”. In addition, the Activity entry with HEK293 was “Non-Toxic”.

For `NCCCC[C@@H]1NC(=O)[C@H](CO)NC(=O)[C@H](CCC(N)=O)NC(=O)[C@@H](Cc2ccccc2)NC(=O)Cc2ccc(cc2)CCNC1=O` (cyclo([dF]QSK[X2])), the IC50 in series [2] was greater than 1500 µM.
